row,melting point [°C],Compound
1,176 to 178,CC(=O)N1CCC(c2nc3n(C4CCCC4)[nH]c(C)c-3c(=O)n2)CC1
2,198,Cc1cc(C)cc(NCc2ccc3nc(NCC(O)CN4CCOCC4)n(Cc4nc(C)ccc4O)c3c2)c1 (stereo not given)
3,213 to 215,COc1cc(C(=O)NC2CCN(CC(F)(F)F)CC2)ccc1Nc1ncc2c(n1)N(C1CCCCC1)CC(F)(F)C(=O)N2C
4,214,COc1ccc(C(=O)O)c(C)c1C
5,134 to 137,CCCc1ccnc2c(=O)[nH]c(-c3ccccc3OCC)nc12
6,88 to 89,CC(C)c1cc(CC#N)c(C(C)C)cc1C#N
7,166 to 167,Nc1nnc(N2CCN(CCOc3ccc(Br)cc3)CC2)[nH]1
8,114 to 115,CC(C)Oc1ccc(CCCOc2cc(CCC(=O)O)n(C3CCCCC3)n2)c(Oc2ncc(C(F)(F)F)cc2Cl)c1
9,125 to 126,CC(C)(C)[Si](C)(C)Oc1cc(Cl)cc(C(O)(C#CC2CC2)C(F)(F)F)c1N (stereo not given)
10,192 to 195,O=C(C=Cc1cc(O)c(O)c([N+](=O)[O-])c1)c1ccccc1
11,178 to 180,N#CN1CCN(c2nn(S(=O)(=O)c3ccccc3)c3ccccc23)CC1
12,75 to 76,CCSc1ccc([N+](=O)[O-])c(N)c1
13,178 to 180,CCCn1c(COCC)nc2c(N)nc3cc(OC4CCN(C(C)=O)CC4)ccc3c21
14,197 to 198,CCOC(=O)c1cc2c(=O)n(C)c3ccccc3n2c1
15,102 to 104,C#CCSc1nc[nH]n1
16,216,Cc1c(-c2ccc(N(C)C)nn2)ssc1=S
17,211 to 217,CC(C)Oc1ccc(-n2c(-c3ccc(C(=O)O)cc3)c(C(=O)O)c3cc(Oc4cccc(Cl)c4)ccc32)cc1
18,207 to 209,COC(=O)C(C)(C)Oc1ccc2c(=O)n(CC(C)C)c(CNC(=O)OC(C)(C)C)c(-c3ccccc3)c2c1
19,178 to 179,CS(=O)(=O)c1ccc(-c2ccccc2-c2ccc(F)cc2)cc1
20,222 to 223,CCn1c(C(O)(c2ccccc2)c2ccccc2)nc(-c2ccncc2)c1-c1ccc(Cl)cc1
21,252 to 253,O=C(O)C1=Cc2cc(Cl)c(Sc3ccc(Cl)cc3)cc2OC1C(F)(F)F (stereo not given)
22,41 to 42,COc1cc(N)c2nccc(C)c2c1OCCCCCc1ccco1
23,204 to 205,O=C(ON1C(=O)CCC1=O)c1ccc(-c2ccc(S(=O)(=O)NCCO)cc2)[nH]c1=O

row,melting point [°C],Compound
1,148 to 149,CCN(CC)CCNC(=O)c1cc(Cl)c(NS(=O)(=O)c2ccc3ccccc3c2)cc1OC
2,100 to 103,CN(C)S(=O)(=O)c1ccc(C(O)c2cccc(O[Si](C)(C)C(C)(C)C)c2)cc1 (stereo not given)
3,76,COc1c(Cl)c(C=O)c(Cl)c(OC)c1OC
4,114 to 116,C[C@H]1CCCC(C)(C)[C@@H]1[C@H](O)c1ccc(C#N)c(F)c1
5,> 300,O=[N+]([O-])c1ccc2ncnc(Nc3ccc4ncccc4c3)c2c1
6,276 to 278,CC1(C)CCC(C)(C)c2cc(C3=NN(c4ccc(C(=O)O)cc4)CC3)ccc21
7,119 to 121,CCOC(=O)C(CC)Oc1ccc(-c2coc3cc4c(cc3c2=O)OCO4)cc1 (stereo not given)
8,139 to 141,CCOC(=O)C(C)NNc1cc(F)cc(F)c1 (stereo not given)
9,210 to 212,COc1cc2nc(CN(C)C)[nH]c(=O)c2cc1OC
10,125 to 126,Cc1nn(-c2ccccn2)c2c1C(O)CC(C)(C)C2 (stereo not given)
11,94 to 95,c1cnc2c(c1)ncn2CCCCc1nnnn1C1CCCCC1
12,154 to 155,CCOC(=O)OC1=C(c2c(C)cc(C)cc2C)C(=O)N(O)C12CCN(OC)CC2
13,101 to 103,O=C(c1ccc(F)cc1)N1CC2CC2(c2ccccc2)C1 (stereo not given)
14,125,CNc1ccc(Cl)cc1Cc1ccccc1
15,152 to 154,CCOC(=O)c1cc(C(=O)O)nc2cc(Cl)cc(Cl)c12
16,114 to 116,O=C(c1ccncc1)c1ccc(Cl)c([N+](=O)[O-])c1
17,89 to 91,Fc1ccc(-c2ccc(C3OCCO3)cc2)cc1F
18,121,CCOC(=O)c1ccc(C#CC(O)c2cc(-c3ccccc3)cc3c2C(C)(C)CCC3(C)C)cc1 (stereo not given)
19,148 to 150,CN1CCOc2cc(S(=O)(=O)n3c(COC(C)(C)C(=O)O)cc4cc(Cl)ccc43)ccc21
20,149 to 151,COc1ccc2cc([C@H](C)C(=O)NNC(=O)CCCO)ccc2c1
21,145,C[C@@H](N)CNc1ccnc2cc(Cl)ccc12
22,176,NC(=O)c1c[nH]c2cccc(OCc3ccccc3)c12
23,185 to 187,CC(=NO)C(C)(C)NCC(CNC(C)(C)C(C)=NO)CC(O)Cn1ccnc1[N+](=O)[O-] (stereo not given)

row,melting point [°C],Compound
1,> 250,CC(C)Oc1c(-c2ccc3c(c2)[C@@H](N2Cc4ccccc4C2=O)[C@H](O)C(C)(C)O3)c(=O)c1=O (relative stereo)
2,224 to 225,CN1C(=O)c2ccccc2C2(CC(=O)NC2=O)C1=O (stereo not given)
3,280 to 283,c1cc(-c2ccc(N3CCNCC3)nc2)nc(Nc2ccc3[nH]nnc3c2)n1
4,165 to 166,C=Cc1ccc(N2C[C@H](CNC(C)=O)OC2=O)cc1F
5,140 to 143,COc1cccc(F)c1-c1cc(NC(=O)C2CCNCC2)ncn1
6,220 to 221,ClC1(NC2(Cc3ccncc3)NN=Cc3ccncc32)C=CC=CC1 (stereo not given)
7,225 to 226,Cn1cc(C2=C(c3cn(C)c4cc(CC#N)ccc34)C(=O)NC2=O)c2ccccc21
8,152 to 156,CC(C)c1ccc2c(c1)c(-c1ccccc1Cl)c(NC(=O)Nc1ccc(F)cc1F)c(=O)n2C
9,176 to 179,COc1cc(/C=C/C=C/C(=O)NCCCN2CCC(c3c[nH]c4ccccc34)CC2)cc(OC)c1O
10,133 to 135,COC(=O)/C=C/c1ccc2nn(C)c(C)c2c1C(=O)OC
11,121 to 123,CSc1nc2nc(C)cc(-c3ccccc3)n2n1
12,78 to 80,CC(C)C1c2ccc(F)cc2CCC1(O)CCO (stereo not given)
13,121 to 122,O=C(CCNC(=O)OCc1ccccc1)NCCSC(=O)OCc1ccccc1
14,150,O=C(NOC(=O)c1ccccc1)OCC1c2ccccc2-c2ccccc21
15,157 to 159,NC(=O)c1occc1C(=O)NC1CCN(Cc2ccc3ccccc3c2)CC1
16,> 250,NC(=O)c1cccc2c1CCCc1ccccc1-2
17,225 to 230,CCOC(=O)c1cn(-c2nc(N)c(F)cc2F)c2c(F)c(F)c(F)c(N)c2c1=O
18,117 to 120,N#Cc1cc(N(CC(=O)O)C(=O)c2cccn2-c2ccc(F)cc2)ccc1N1CCCCC1
19,98 to 99,CCc1nc(COc2ccc(NC(=O)/C=C/c3cnn(C)c3-c3ccc(F)cc3)cc2)cs1
20,145 to 148,NNc1cc2c(nn1)CCCCCC2
21,295 to 298,Cc1ccc(C)c2c(=O)oc(=O)[nH]c12
22,146 to 147,COc1ccc2[nH]c(C(=O)OC(C)(C)C)c(N)c2c1
23,89 to 90,COC(=O)[C@@H](CC(C)C)NC(=O)c1ccc2c(c1)OCO2

row,melting point [°C],Compound
1,315 to 317,CCn1cc(C(=O)O)c(=O)c2cc(C=NO)sc21
2,151 to 153,CC(C(=O)OC12CC3CC(CC(C3)C1)C2)c1ccc2nc(N)sc2c1 (stereo not given)
3,232 to 235,O=CNC1Cc2cc(Br)cc([N+](=O)[O-])c2NC1=O (stereo not given)
4,104 to 106,CC1=C(C2OC(=O)NC2=O)CCCC1 (stereo not given)
5,158,O=C(NC(=Cc1ccccc1)c1cccs1)C(F)(F)F
6,228 to 230,CCCCCCN(C)c1ccc(C=C2SC(=S)N(CC(=O)NC)C2=O)cc1
7,159 to 161,Cc1[nH]c(=O)n(-c2cc(C(=O)OC(C)C)c(Cl)cc2F)c(=O)c1SC#N
8,82 to 83,CCOC(=O)CCCCCCCn1c(Cc2ccccc2)nc(-c2ccccc2)c1-c1ccccc1
9,109,COc1ncccc1C(=O)N(C(C)C)C(C)C
10,154 to 155,COC(=O)c1cc(-c2ccc(S(C)(=O)=O)cc2)n(-c2ccc(F)cc2)c1C
11,82 to 86,C[C@H]1N(C(=O)OCc2ccccc2)COC1(O)c1ccc(OCc2ccccc2)cc1 (stereo not given in full)
12,156 to 158,N#Cc1ccc(CCc2ccc(OCc3ccc4ccccc4n3)cc2)cc1
13,216 to 220,O=C(Cn1nnc2ccccc21)Nc1ccc(-n2nc(C3CC3)cc2C2CC2)cc1
14,146 to 148,COc1ccc(CCc2ccccc2C2(OC)C=CC(C(N)=O)=C(O)C2)cc1OC (stereo not given)
15,202 to 204,Cc1cc(C)c(S(=O)(=O)NCC2CCN(S(=O)(=O)c3c(C)cc(C)cc3C)CC2)c(C)c1
16,199 to 201,CC(C)(C)Nc1c([N+](=O)[O-])cc([N+](=O)[O-])c2nc(C(F)F)[nH]c12
17,80 to 82,CN(C)C(=O)N(C)c1nnc(C(C)(C)CCl)s1
18,77.5 to 78.5,CCOC(=O)C(=CNc1ccc(F)c(SCC)n1)C(=O)OCC
19,61 to 63,CCCCCC(=O)Nc1ccc2ccn(CCCCCCCC(=O)OC)c2c1
20,98.5 to 99.5,CC1(C)CC(=O)OC(C(Cl)(Cl)Cl)C1Br (stereo not given)
21,134 to 136,CN(C(=O)C(C)(C)c1cc(C(F)(F)F)cc(C(F)(F)F)c1)c1cnc(N2CCOCC2)cc1-c1ccccc1Cl

row,Compound,melting point [°C]
1,COc1ccc([N+](=O)[O-])c(C=C[N+](=O)[O-])c1OCc1ccccc1,118 to 119
2,Cc1cc(OC(=O)N(C)SSC(C)(C)C)cc(C)c1N=Cc1ccccc1O,121 to 124
3,O=C(Nc1ccccc1)Nc1cc(Cl)nc(Cl)c1,219 to 222
4,CON=Cc1ncn2c1CN(C)C(=O)c1c(Cl)cccc1-2,173 to 174
5,NCC1C[N+]([O-])=C(c2ccccc2F)c2cc(Cl)ccc2N1 (stereo not given),144 to 148
6,CN1C(=O)CN=C(c2cccc(Cl)c2)c2cc(C(=O)c3ccc(Cl)cc3)ccc21,176
7,CC(C)c1nc(-c2ncn3c2[C@@H]2CCCN2C(=O)c2c(Cl)cccc2-3)no1,195 to 196
8,CCNC(=O)c1nc2n(n1)-c1ccc(Cl)cc1C(c1ccccc1F)=NC2,232 to 234
9,CCOP(=O)(OCC)c1ccc(N)cc1,112 to 116
10,CN(Cc1cnc(Cl)s1)C(=N)N[N+](=O)[O-],116 to 117

# — a melting point compilation (Tetko et al.; mined from patent text by program, amines drawn as free bases though some values may be those of a salt)
